We go through 6 compounds from ChEMBL document CHEMBL5465560, “Selectivity Literature for EUbOPEN Chemogenomic Library” (2024).

For assay [1], the target named is T1, Serine/threonine-protein kinase ICK (Homo sapiens) (UniProt Q9UPZ9).
T1 sequence (whole entry): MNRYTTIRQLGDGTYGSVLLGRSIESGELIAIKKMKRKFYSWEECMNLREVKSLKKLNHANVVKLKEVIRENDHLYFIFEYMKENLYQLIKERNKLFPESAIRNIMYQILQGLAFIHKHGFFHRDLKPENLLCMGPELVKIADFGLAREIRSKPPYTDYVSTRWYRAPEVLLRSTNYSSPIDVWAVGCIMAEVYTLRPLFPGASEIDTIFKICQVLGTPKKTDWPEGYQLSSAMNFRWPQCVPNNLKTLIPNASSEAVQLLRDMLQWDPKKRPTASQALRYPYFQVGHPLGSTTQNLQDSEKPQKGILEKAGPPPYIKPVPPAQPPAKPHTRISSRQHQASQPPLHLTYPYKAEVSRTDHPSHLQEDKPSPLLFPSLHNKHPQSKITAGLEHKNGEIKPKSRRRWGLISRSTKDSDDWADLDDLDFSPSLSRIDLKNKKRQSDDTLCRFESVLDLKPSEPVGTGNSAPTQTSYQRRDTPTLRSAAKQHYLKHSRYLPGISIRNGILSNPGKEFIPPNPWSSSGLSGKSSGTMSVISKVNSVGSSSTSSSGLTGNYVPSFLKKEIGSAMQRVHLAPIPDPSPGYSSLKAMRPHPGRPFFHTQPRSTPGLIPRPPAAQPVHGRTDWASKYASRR
The experiment in a line: Selectivity interaction (LanthaScreen Eu Kinase Binding Assay) EUB0001632a ICK. The conditions noted are these: at 10 µM.

For assay [2], the target named is T2, Serine/threonine-protein kinase PLK4 (Homo sapiens) (UniProt O00444).
T2 sequence (whole entry): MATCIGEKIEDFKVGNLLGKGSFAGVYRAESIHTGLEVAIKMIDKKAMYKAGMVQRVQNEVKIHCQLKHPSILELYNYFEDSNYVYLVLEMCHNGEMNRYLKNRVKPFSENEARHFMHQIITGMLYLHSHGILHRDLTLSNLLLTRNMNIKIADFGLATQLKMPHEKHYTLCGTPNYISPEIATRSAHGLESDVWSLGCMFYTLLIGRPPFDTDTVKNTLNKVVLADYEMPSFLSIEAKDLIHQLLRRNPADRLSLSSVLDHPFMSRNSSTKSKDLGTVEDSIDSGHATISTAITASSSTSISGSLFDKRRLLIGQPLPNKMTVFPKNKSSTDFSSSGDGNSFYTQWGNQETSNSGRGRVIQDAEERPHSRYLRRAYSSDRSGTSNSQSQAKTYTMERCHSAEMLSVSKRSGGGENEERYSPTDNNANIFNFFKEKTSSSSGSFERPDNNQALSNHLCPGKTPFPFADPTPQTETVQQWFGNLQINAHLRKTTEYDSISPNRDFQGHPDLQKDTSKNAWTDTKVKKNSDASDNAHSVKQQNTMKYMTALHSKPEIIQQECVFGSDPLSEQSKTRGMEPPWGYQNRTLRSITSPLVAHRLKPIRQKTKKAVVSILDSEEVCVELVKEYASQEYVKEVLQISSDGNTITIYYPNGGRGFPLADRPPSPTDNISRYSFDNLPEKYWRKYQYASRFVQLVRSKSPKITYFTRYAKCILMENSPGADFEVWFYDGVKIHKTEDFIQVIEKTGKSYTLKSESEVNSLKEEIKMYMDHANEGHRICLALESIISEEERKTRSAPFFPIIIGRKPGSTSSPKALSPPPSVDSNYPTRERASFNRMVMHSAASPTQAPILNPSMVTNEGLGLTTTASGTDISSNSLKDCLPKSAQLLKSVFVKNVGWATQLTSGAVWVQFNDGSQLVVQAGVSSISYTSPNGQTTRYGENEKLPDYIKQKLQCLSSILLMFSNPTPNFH
The experiment in a line: Selectivity interaction (KinomeScan (DiscoverX)) EUB0000607a PLK4. The conditions noted are these: at 10 µM.

Assay [3] addresses T3, Dual specificity mitogen-activated protein kinase kinase 5 (Homo sapiens) (UniProt Q13163).
T3 sequence (whole entry): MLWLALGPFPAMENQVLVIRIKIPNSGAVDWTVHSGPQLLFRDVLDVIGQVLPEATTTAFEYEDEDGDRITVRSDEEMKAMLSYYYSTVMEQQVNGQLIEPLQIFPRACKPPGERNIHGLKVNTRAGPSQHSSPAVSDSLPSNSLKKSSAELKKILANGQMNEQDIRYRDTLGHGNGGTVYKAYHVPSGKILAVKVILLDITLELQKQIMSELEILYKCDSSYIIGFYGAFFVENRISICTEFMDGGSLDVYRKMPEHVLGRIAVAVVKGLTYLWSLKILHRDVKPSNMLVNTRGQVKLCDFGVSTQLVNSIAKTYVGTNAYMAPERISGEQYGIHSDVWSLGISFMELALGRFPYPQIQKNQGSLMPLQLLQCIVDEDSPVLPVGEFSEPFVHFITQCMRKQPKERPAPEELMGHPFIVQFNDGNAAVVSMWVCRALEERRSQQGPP
In words: Selectivity interaction (KinomeScan (DiscoverX)) EUB0001619a MAP2K5. Conditions: at 1 µM.

For assay [4], the target named is Serine/threonine-protein kinase 16 (Homo sapiens, UniProt O75716). In words: Selectivity interaction (KinomeScan (DiscoverX)) EUB0001619a STK16. Conditions: at 1 µM.
Sequence of Serine/threonine-protein kinase 16 (O75716 whole entry): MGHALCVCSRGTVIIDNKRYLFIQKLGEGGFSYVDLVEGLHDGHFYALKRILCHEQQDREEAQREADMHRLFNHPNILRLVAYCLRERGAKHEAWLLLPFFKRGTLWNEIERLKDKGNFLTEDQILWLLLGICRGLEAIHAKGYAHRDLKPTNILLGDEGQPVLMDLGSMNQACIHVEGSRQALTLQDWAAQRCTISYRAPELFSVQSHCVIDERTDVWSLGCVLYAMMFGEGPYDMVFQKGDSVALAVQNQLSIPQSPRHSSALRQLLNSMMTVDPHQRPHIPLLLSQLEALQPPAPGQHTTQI
Assay [5] has as its target Tyrosine-protein kinase receptor Tie-1 (Homo sapiens) (UniProt P35590). The experiment in a line: Selectivity interaction (KinomeScan (DiscoverX)) EUB0001619a TIE1. The conditions noted are these: at 1 µM.
For assay [6], the target named is T4, Mixed lineage kinase domain-like protein (Homo sapiens) (UniProt Q8NB16).
T4 sequence (whole entry): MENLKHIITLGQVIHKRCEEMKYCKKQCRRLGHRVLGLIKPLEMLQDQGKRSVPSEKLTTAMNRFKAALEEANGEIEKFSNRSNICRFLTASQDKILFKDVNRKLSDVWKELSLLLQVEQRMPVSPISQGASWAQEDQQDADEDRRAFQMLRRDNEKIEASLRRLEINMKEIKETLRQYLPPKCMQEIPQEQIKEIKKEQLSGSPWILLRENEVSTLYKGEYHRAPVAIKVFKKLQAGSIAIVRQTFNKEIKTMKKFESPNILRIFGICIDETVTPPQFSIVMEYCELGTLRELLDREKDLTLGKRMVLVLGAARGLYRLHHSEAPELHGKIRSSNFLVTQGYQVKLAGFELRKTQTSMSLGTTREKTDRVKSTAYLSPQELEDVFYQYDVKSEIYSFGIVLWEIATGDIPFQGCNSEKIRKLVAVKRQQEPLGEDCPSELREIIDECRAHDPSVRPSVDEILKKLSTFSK
In words: Selectivity interaction (ActivX KiNativ screen (kinase selectivity in THP-1 cell lysates)) EUB0000639a MLKL. It counts as subcellular. Conditions: lysate.

Assay [7] addresses Serine/threonine-protein kinase RIO2 (Homo sapiens) (UniProt Q9BVS4). The experiment in a line: Selectivity interaction (KinomeScan (DiscoverX)) EUB0001049a RIOK2. The conditions noted are these: at 1 µM.
In assay [8] the target is Small conductance calcium-activated potassium channel protein 1 (Homo sapiens) (UniProt Q92952). In words: Selectivity interaction (Eurofins CEREP Diversity Profile (receptors and ion channels)) EUB0000279b KCNN1. The conditions noted are these: at 10 µM.
Sequence of Small conductance calcium-activated potassium channel protein 1 (Homo sapiens) (Q92952 whole entry): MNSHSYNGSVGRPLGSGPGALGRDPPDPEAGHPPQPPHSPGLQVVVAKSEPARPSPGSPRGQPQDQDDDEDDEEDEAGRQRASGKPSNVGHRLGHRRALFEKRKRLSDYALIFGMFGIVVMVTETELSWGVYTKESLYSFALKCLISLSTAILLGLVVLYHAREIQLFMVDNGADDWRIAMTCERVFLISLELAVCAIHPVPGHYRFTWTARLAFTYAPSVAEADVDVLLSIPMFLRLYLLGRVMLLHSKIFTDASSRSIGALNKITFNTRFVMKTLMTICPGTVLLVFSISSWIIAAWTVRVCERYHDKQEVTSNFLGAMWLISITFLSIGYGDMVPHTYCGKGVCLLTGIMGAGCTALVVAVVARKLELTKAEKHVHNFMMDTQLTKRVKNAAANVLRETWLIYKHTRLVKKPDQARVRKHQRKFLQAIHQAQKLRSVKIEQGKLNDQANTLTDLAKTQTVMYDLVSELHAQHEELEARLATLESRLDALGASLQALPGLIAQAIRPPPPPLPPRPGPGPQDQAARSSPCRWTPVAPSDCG

Sequence of Tyrosine-protein kinase receptor Tie-1 (Homo sapiens) (P35590 whole entry, the tested form may be a part): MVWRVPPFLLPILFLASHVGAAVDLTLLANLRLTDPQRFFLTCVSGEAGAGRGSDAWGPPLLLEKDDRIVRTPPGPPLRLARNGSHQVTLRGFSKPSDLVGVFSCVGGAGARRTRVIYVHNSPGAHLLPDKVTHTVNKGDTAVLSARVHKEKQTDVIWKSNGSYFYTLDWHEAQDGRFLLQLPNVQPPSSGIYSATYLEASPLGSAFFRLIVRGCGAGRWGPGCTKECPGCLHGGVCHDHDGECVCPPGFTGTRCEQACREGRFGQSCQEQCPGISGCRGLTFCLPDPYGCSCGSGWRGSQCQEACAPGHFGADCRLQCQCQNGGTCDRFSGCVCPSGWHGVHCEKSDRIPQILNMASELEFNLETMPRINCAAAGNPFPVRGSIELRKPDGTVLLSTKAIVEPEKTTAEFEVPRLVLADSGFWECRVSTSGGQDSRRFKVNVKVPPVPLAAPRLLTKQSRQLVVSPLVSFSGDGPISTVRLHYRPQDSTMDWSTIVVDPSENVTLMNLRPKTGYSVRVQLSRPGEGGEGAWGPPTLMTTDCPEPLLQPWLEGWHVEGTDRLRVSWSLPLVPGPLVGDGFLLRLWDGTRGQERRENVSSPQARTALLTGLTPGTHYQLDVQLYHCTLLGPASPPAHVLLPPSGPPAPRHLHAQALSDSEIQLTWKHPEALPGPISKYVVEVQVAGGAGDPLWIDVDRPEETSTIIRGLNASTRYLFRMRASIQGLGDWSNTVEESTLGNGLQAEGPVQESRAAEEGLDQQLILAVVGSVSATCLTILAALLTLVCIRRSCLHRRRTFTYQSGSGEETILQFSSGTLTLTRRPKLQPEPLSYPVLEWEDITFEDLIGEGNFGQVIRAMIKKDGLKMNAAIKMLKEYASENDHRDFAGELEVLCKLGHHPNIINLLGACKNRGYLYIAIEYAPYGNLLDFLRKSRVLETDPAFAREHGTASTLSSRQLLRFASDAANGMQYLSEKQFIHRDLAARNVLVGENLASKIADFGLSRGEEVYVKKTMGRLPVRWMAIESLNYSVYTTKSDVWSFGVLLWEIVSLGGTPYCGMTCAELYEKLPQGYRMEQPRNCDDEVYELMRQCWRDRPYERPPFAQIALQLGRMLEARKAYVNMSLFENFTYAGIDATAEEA
Sequence of Serine/threonine-protein kinase RIO2 (Homo sapiens) (Q9BVS4 whole entry, looked up): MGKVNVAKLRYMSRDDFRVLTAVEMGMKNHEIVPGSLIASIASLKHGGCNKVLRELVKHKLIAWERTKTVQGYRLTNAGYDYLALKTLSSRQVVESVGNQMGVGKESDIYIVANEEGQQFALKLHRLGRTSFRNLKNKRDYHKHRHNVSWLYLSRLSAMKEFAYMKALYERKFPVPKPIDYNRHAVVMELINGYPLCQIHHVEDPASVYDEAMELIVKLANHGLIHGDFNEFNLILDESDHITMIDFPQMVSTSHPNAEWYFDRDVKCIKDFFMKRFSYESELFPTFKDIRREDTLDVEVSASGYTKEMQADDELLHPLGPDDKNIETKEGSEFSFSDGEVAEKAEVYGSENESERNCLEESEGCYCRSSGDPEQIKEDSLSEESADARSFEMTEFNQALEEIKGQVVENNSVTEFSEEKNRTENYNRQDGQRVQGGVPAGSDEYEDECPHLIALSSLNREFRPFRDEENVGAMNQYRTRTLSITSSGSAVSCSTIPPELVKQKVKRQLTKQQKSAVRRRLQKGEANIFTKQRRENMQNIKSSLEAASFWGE

`Cn1cc(-n2cnc3c(NCc4nc5cc(Cl)c(Cl)cc5[nH]4)nc(N4CCOCC4)nc32)cn1`: the % of inhibition in assay [1] was -3.44%.

As for `CNC(=O)Nc1ccc(-c2nc(N3CC4CCC(C3)O4)c3cnn(C4CCC5(CC4)OCCO5)c3n2)cc1`, in assay [2], the % of control came out at 75%.

As for `N#Cc1cccc(-c2c[nH]c3ncnc(N4CCOCC4)c23)c1`, the % of control stood at 14% in assay [3], 33% in assay [4] and 80% in assay [5].

As for `CC[C@@H]1[C@H](F)C(=O)N[C@@H]1COc1nccc2cc(C(N)=O)c(OC)cc12` [ZIMLOVISERTIB], the % of inhibition in assay [6] (at 0.01 µM) is -3.7%; in assay [6] (at 0.04 µM), 7.2%; in assay [6] (at 0.2 µM), 16.3%; in assay [6] (at 1 µM), 42.3%; in assay [6] (at 5 µM) it was 76.6%.

`COc1cc(Nc2nc(C)cc(-c3cnn4nc(OC)ccc34)n2)cc(C(F)(F)F)c1` gave a % of control in assay [7] of 87%.

For the compound `CC(=O)c1cc(-c2ccccc2OCC2CC2)c2ncccn12`, the % of control in assay [8] stood at 110%.
